In patent US9682960B2 (priority 2013, dated 2017):
Read-outs that look alike come from different tables or passages of the source.

How the values were obtained:
[1] = system: castrated (CX) immature male rats; assay: Systemic androgenic (agonistic) activity in orchidectomized (CX) immature male rats; format: in vivo, rat; conditions: 0.1 mg/rat/po, 7 days; for CX Agonistic activity % Stimulation Bulbo: bulbocavernosus muscles weight; for CX Agonistic activity % Stimulation SV: seminal vesicles weight; for CX Agonistic activity % Stimulation Prostate: ventral prostate weight
Procedure: Immature male rats (Crl:CD(SD)Br) 22 to 24-day old weighting 60-80 g at start of treatment were obtained from Charles-River, Inc. (St-Constant, Quebec, Canada) and housed up to 5 per cage in plastic bins in a temperature (23±1° C.)- and light (12 h light/day, lights on at 7 h15)-controlled environment. The rats were fed rodent chow and tap water ad libitum. […] The day following their arrival, the designed animals were orchidectomized (CX) under Isoflurane anesthesia (Study Day 1) via the scrotal route and were then randomly assigned to groups of 3 to 5 animals. At the time of orchidectomy, one silastic implant of dihydrotestosterone (DHT; 1 cm length of pure DHT in silastic tubing having inner and outer diameter of 0.078 and 0.125 inches, respectively), was inserted subcutaneously in the dorsal area of animals assigned to the evaluation of antiandrogenic activity. In the case of intact animal experiments, the orchidectomy and the silastic implant installation are omitted.
Tested compounds were administered orally once daily for 7 days from Study Day 2 to Study Day 8 at doses generally ranging from 0.1 and 0.5 mg/animal. Compounds were either solubilized in dimethylsulfoxide (DMSO, 10% final concentration) and were administered as a solution/suspension in 0.9% NaCl-1% gelatin or were administered as suspensions in 0.4% aqueous methylcellulose. Animals of the control groups received the corresponding vehicle alone during the 7-day period. Some animals were treated with the antiandrogen Flutamide or Casodex as reference. The animals under isoflurane anesthesia were killed by cervical dislocation on day 9 of the study, approximately 24 h after the last dosing. The ventral prostate, seminal vesicles and bulbocavernosus muscles were rapidly dissected and weighed.
For calculations with intact animals, control DHT is replaced by control intact and the % stimulation is subtracted by 100%. W is the weight of the prostate, seminal vesicles or bulbocavernosus muscles. Discussion

Human Androgen Receptor = Human Androgen Receptor (Homo sapiens (Human), UniProt P10275); assay: Androgen receptor assay: [3H]R1881 displacement, cytosol of HEK-293 cells transfected with hAR (hydroxylapatite assay); format: binding; conditions: for Human Androgen Receptor Binding RBA (%) R1881 = 100: relative binding affinity; for times more potent than OH-flutamide on the human AR (RBA ratio): versus hydroxyflutamide
Human Androgen Receptor, sequence (P10275 whole entry): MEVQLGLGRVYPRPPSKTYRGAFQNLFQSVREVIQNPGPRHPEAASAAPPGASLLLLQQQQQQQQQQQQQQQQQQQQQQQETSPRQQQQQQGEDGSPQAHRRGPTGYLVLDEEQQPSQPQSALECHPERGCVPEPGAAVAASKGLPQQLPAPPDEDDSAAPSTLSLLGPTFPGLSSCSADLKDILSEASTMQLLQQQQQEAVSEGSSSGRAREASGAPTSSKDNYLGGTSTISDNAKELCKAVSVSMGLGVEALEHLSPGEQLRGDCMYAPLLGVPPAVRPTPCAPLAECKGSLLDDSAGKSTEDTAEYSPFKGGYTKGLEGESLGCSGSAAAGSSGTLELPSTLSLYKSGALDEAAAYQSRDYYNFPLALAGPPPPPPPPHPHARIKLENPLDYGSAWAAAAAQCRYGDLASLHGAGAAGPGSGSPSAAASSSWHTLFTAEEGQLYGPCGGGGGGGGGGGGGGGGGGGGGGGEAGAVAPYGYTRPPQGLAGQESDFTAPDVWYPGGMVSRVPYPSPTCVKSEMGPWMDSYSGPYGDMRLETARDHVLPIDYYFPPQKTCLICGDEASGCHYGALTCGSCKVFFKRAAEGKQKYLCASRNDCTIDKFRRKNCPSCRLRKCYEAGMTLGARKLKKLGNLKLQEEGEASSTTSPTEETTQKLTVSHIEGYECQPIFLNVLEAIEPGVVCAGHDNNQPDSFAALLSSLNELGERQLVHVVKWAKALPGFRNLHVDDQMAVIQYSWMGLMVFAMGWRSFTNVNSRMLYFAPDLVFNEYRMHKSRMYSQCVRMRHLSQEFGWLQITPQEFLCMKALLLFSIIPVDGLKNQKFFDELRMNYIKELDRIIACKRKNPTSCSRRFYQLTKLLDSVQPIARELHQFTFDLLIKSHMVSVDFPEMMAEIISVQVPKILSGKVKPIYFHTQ

[2] = system: Shionogi mouse mammary carcinoma cells; assay: In vitro androgenic/antiandrogenic activity: proliferation of Shionogi cells with or without DHT; format: cell-based; conditions: for IC50: Mus musculus; for fold more potent than OH-flutamide in reversing DHT-stimulated Shionogi cell proliferation: versus hydroxyflutamide
[3] = read-out: Shionogi Antiandrogenic Activity IC50, DHT (0.3 nM)-stimulated cell number

| Compound | Human Androgen Receptor Binding RBA (%) R1881 = 100 (Human Androgen Receptor; […]) | IC50 [2, 3] [nM] | Human Androgen Receptor Binding RBA (%) R1881 = 100 (Human Androgen Receptor; transfected cells) | also measured |
| --- | --- | --- | --- | --- |
| Cc1c(N2C(=O)C(C)(C)N(CCCOc3ccc(-c4cccnc4)cc3)C2=S)ccc(C#N)c1Cl [EM-8656] | 477 ± 16 (n = 2) % | > 100 |  | CX Agonistic activity % Stimulation Bulbo [1]: 73%; CX Agonistic activity % Stimulation SV [1]: 24%; CX Agonistic activity % Stimulation Prostate [1]: 38% |
| Cc1c(N2C(=O)C(C)(C)N(CCCOc3ccc(-c4ccncc4)cc3)C2=S)ccc(C#N)c1Cl [EM-8664] | 664% | > 100 |  | CX Agonistic activity % Stimulation Bulbo [1]: 177%; CX Agonistic activity % Stimulation SV [1]: 66%; CX Agonistic activity % Stimulation Prostate [1]: 62% |
| Cc1c(N2C(=O)C(C)(C)N(CCCOc3ccc(-c4cncnc4)cc3)C2=S)ccc(C#N)c1Cl [EM-8685] | 144% | > 100 |  | CX Agonistic activity % Stimulation Bulbo [1]: 136%; CX Agonistic activity % Stimulation SV [1]: 20%; CX Agonistic activity % Stimulation Prostate [1]: 41% |
| Cc1c(N2C(=O)C(C)(C)N(CCCOc3ccc(-c4cccnc4)cc3F)C2=S)ccc(C#N)c1Cl [EM-8714] | 355% | 97 |  | CX Agonistic activity % Stimulation Bulbo [1]: 78%; CX Agonistic activity % Stimulation SV [1]: 18%; CX Agonistic activity % Stimulation Prostate [1]: 45% |
| CC1(C)C(=O)N(c2ccc(C#N)c(C(F)(F)F)c2)C(=O)N1CCCOc1ccc(-c2ccncc2)c(F)c1 [EM-9066] |  | 11 ± 4 | 10.3 ± 1.3 (n = 2) % |  |
| CC1(C)C(=O)N(c2ccc(C#N)c(C(F)(F)F)c2)C(=O)N1CCCOc1ccc(-c2cc[n+]([O-])cc2)c(F)c1 [EM-9067] |  | 12 | 2.4% |  |
| CC1(C)C(=O)N(c2ccc(C#N)c(C(F)(F)F)c2)C(=S)N1CCCCOc1ccc(-c2cccnc2)cc1 [EM-9070] |  | 14.9 | 191% |  |
| CC1(C)C(=O)N(c2ccc(C#N)c(C(F)(F)F)c2)C(=O)N1CCCOc1ccc(-c2ccncc2)c(C(F)(F)F)c1 [EM-9089] |  | 49 | 2.0% |  |
| CC1(C)C(=O)N(c2ccc(C#N)c(C(F)(F)F)c2)C(=S)N1CCCOc1ccc(-c2ccncc2)nc1 [EM-9092] |  | 11.2 | 72% |  |
| CC1(C)C(=O)N(c2ccc(C#N)c(C(F)(F)F)c2)C(=O)N1CCCOc1ccc(-c2ccncc2)nc1 [EM-9111] | 1.0 ± 0.0 (n = 2) % | 19 |  |  |
| CC1(C)C(=O)N(c2ccc(C#N)c(C(F)(F)F)c2)C(=O)N1CCCOc1ccc(-c2ccncc2)cn1 [EM-9114] | 7.9 ± 4.1 (n = 3) % | 19.2 ± 0.3 |  |  |
| CC1(C)C(=O)N(c2ccc(C#N)c(Cl)c2)C(=O)N1CCCOc1ccc(-c2ccncc2)c(F)c1 [EM-9115] | 12.5 ± 2.3 (n = 6) % | 18 ± 4 |  |  |
| CC1(C)C(=O)N(c2ccc(C#N)c(Cl)c2)C(=O)N1CCCOc1ccc(-c2cc[n+]([O-])cc2)c(F)c1 [EM-9117] | 2.5 ± 0.5 (n = 5) % | 31 ± 10 |  |  |
| CC1(C)C(=O)N(c2ccc(C#N)c(Cl)c2)C(=O)N1CCCOc1ccc(-c2cc[n+]([O-])cc2)cc1 [EM-9118] | 2.2 ± 0.4 (n = 6) % | 15 ± 3 |  |  |
| CC1(C)C(=O)N(c2ccc(C#N)c(Cl)c2)C(=S)N1CCCOc1ccc(-c2cc[n+]([O-])cc2)c(F)c1 [EM-9119] | 122% | 12.1 ± 0.5 |  |  |
| CC1(C)C(=O)N(c2ccc(C#N)c(Cl)c2)C(=S)N1CCCOc1ccc(-c2cc[n+]([O-])cc2)cc1 [EM-9120] | 106% | 9.2 ± 0.8 |  |  |
| CC1(C)C(=O)N(c2ccc(C#N)c(C(F)(F)F)c2)CC(=O)N1CCCOc1ccc(-c2ccncc2)cc1 [EM-9126] | <0.1% | 173 |  |  |
| CC1(C)C(=O)N(c2ccc(C#N)c(F)c2)C(=O)N1CCCOc1ccc(-c2cc[n+]([O-])cc2)cc1 [EM-9176] |  | > 100 | ~0.1% |  |

| Compound | Human Androgen Receptor Binding RBA (%) R1881 = 100 (Human Androgen Receptor; […]) | IC50 [2, 3] [nM] | Human Androgen Receptor Binding RBA (%) R1881 = 100 (Human Androgen Receptor; transfected cells) | also measured |
| --- | --- | --- | --- | --- |
| CC1(C)C(=O)N(c2ccc(C#N)c(C(F)(F)F)c2)C(=O)N1CCOc1ccc(-c2cc[n+]([O-])cc2)cc1 [EM-9180] |  | 24 | 1.7% |  |
| CC1(C)C(=O)N(c2ccc(C#N)c(Cl)c2)C(=O)N1CCCOc1ccc(-c2ccncc2)cc1F [EM-9198] | 22% | 5.3 |  | times more potent than OH-flutamide on the human AR (RBA ratio) (Human Androgen Receptor): 105 times; fold more potent than OH-flutamide in reversing DHT-stimulated Shionogi cell proliferation [2]: 6.4 fold |
| CC1(C)C(=O)N(c2ccc(C#N)c(C(F)(F)F)c2)C(=O)N1Cc1ccc(-c2ccncc2)cc1 [EM-9199] |  | 27 | 2.3% |  |
| CC1(C)C(=O)N(c2ccc(C#N)c(C(F)(F)F)c2)C(=O)N1Cc1ccc(-c2cccnc2)cc1 [EM-9200] |  | 66 | 2.5% |  |
| N#Cc1ccc(N2C(=O)N(CCCOc3ccc(-c4ccncc4)c(F)c3)C3(CCCC3)C2=O)cc1Cl [EM-9201] | 70.8% | 9.7 |  |  |
| Cc1c(N2C(=O)N(CCCOc3ccc(-c4ccncc4)c(F)c3)C(C)(C)C2=O)ccc(C#N)c1F [EM-9205] |  | 14.8 | 17.9% | times more potent than OH-flutamide on the human AR (RBA ratio) (Human Androgen Receptor): 85 times; fold more potent than OH-flutamide in reversing DHT-stimulated Shionogi cell proliferation [2]: 2.3 fold |
| Cc1cc(OCCCN2C(=O)N(c3ccc(C#N)c(Cl)c3)C(=O)C2(C)C)ccc1-c1cc[n+]([O-])cc1 [EM-9221] | 2.7% | 10.6 |  |  |
| CC1(C)C(=O)N(c2ccc(C#N)c(Cl)c2)C(=O)N1CCCOc1ccc(-c2cc[n+]([O-])cc2)cc1F [EM-9226] | 2.4% | 23 |  |  |
| CC1(C)C(=O)N(c2ccc(C#N)c(C(F)(F)F)c2)C(=O)N1Cc1ccc(-c2ccncc2)c(F)c1 [EM-9227] | 4.9% | 16.4 |  |  |
| CC1(C)C(=O)N(c2ccc(C#N)c(C(F)(F)F)c2)C(=O)N1Cc1ccc(-c2cc[n+]([O-])cc2)c(F)c1 [EM-9228] | 0.4% | 53 |  |  |
| COc1cc(-c2ccncc2)ccc1OCCCN1C(=O)N(c2ccc(C#N)c(Cl)c2)C(=O)C1(C)C [EM-9261] | 2.5% | 27 |  |  |
| CC1(C)C(=O)N(c2ccc(C#N)c(Cl)c2)C(=O)N1CCCOc1ccc(-c2ccncc2F)cc1 [EM-9267] |  | 16 | 5.5% |  |
| CC1(C)C(=O)N(c2ccc(C#N)c(C(F)(F)F)c2)C(=O)N1c1ccc(-c2ccncc2)cc1 [EM-9340] |  |  | 0.2% | IC50 ([2]; DHT (0.3 nM)-stimulated cell number, read-out: Shionogi Antiandrogenic Activity IC50): 126 nM |
| Cc1c(N2C(=O)N(c3ccc(-c4cccnc4)cc3)C(C)(C)C2=O)ccc(C#N)c1C(F)(F)F [EM-9342] |  | 66 | 0.4% |  |
| Cc1c(N2C(=O)N(Cc3ccc(-c4ccncc4)cc3)C(C)(C)C2=O)ccc(C#N)c1Cl [EM-9343] | 6.1% | 21 |  |  |
| Cc1c(N2C(=O)N(c3ccc(-c4ccncc4)cc3)C(C)(C)C2=O)ccc(C#N)c1C(F)(F)F [EM-9344] | 0.8% | 51 |  |  |
| Cc1c(N2C(=O)N(Cc3ccc(-c4cc[n+]([O-])cc4)cc3)C(C)(C)C2=O)ccc(C#N)c1Cl [EM-9345] |  | ~80 | 0.5% |  |
